In the OligoGym collection:
These antisense oligonucleotides have a phosphorothioate backbone; sugars and methylation of C are not fully specified.

What follows are sequences tested against PTPN11. Details: ASO.
Further: test concentration or dose not given here.

Point of comparison: AGAGCATACTCATCAGGCCA, remaining target (mRNA or protein) (fraction of control) 0.2. Against it:
- TCCACTCGTCTGGTCCGCTA — higher, 0.29
- AAACCATCTCCGCGATGTCA — higher, 0.41
- ACACCAGTGATATTTGGGTG — higher, ≥ 1
- TCCGCGATGTCATGTTCCTC — higher, 0.26
- CCCTTGTCCAACCTTTGAAA — higher, 0.25
- TACAAGAAAACTACCATGTT — higher, ≥ 1
- CACGTTTTCATAGACTCTAG — higher, 0.71

What follows are sequences tested against MAP3K1. Details: ASO.

Point of comparison: GTTGTCGTTGTAAAGTGTCT, remaining target (mRNA or protein) (fraction of control) 0.45. Against it:
- CTGTTCAGTGGCATCATGGC — higher, 0.49
- GTCTGCCTTTTGTTTGAACC — higher, 0.67
- GTAGATATCAATGTGGTTCC — higher, 0.75
- GGCAGCCGCGCGCGCGCTGC — higher, 0.81
- GTTTCCAGATAGTTGTTGGG — higher, 0.85
- TTGTTGAACTAGAAGGTCCT — higher, 0.57
- CTGTAGTAACCATTCTTGCA — lower, 0.4
- GCACTAGTTTGGGCTTTTGC — lower, 0.28
- GAATCCCTGAAGTCTATGCT — higher, 0.52
- GAGAAAACTTGCGCTGTGTT — lower, 0.37
- ATTGGGTACTGTAGTAACCA — higher, 0.54
- AATCCTTTTCCAGTTTTCTC — higher, 0.87
- CATTCTTGCAGAACTCAAGT — higher, 0.54
- TTCTTGCAGAACTCAAGTAG — higher, ≥ 1
- CAGTCCGCCCGCTCGCGGCC — lower, 0.34
- GCAACCCTTTGAGAGTTTCT — lower, 0.32
- ACCATTCTTGCAGAACTCAA — higher, 0.55
- CCACTGGCCTCGTTCATAGC — lower, 0.21
- CAAGGCTGGAAACATTAATT — higher, 0.94
- GGGGTACTGTAGTAACCATT — higher, 0.55
- CCACCGACTCGGTAAGGTGG — higher, 0.81
- ACATACTTAGGTAAGGGTTC — higher, 0.56
- CAGAAATGTCCTCTGAACTG — higher, 0.5
- GTAGTAACCATTCTTGCAGA — lower, 0.42
- TTGTTTTCAGGACAGTTTCT — higher, 0.65
- TTGTTGAGCATCCTGTTTCT — lower, 0.39
- TCAGGCAGCTGGTCCAGCTC — higher, 0.52
- TACTGTAGTAACCATTCTTG — higher, 0.74
- GCTCCTCCGCCGCCGCCTGC — lower, 0.27
- CAGTTTTGAAAACACATGGG — higher, ≥ 1
- TAACCATTCTTGCAGAACTC — higher, 0.59
- ATTTCCACCTCATCTGCATA — lower, 0.44
- CTGGTGAAGTGAGTGGAAAC — higher, 0.76
- AGTAACCATTCTTGCAGAAC — higher, ≥ 1
- GGTACTGTAGTAACCATTCT — higher, 0.53
- CCCACTCCCCGCTGCGTCCG — lower, 0.06
- TTTTGCATACTGAGCTTAGG — higher, 0.48
- ATCATGATTTGTCAATCACA — higher, 0.62
- TAGTTGATCTGTATAATTGG — higher, ≥ 1

What follows are sequences tested against RHOB. Details: ASO.

Point of comparison: GTAGTCGTAGGCTTGGAT, remaining target (mRNA or protein) (fraction of control) 0.71. Against it:
- AACTCGTCCTTACTGAAC — lower, 0.7
- ACCTCGCGCACGCCTTCC — higher, ≥ 1
- GCCGTCTCGAAGACCTCG — higher, ≥ 1
- CGTGGCCGTCTCGAAGAC — higher, ≥ 1
- GAGTCCGGGCTGTCCACC — higher, ≥ 1
- AGCACCTTGCAGCAGTTG — higher, ≥ 1
- GTTGATGCAGCCGTTCTG — higher, 0.93
- GATGCAGCCGTTCTGGGA — higher, ≥ 1
- CCGTCGCCCACCACCACC — higher, ≥ 1
- AAGCACATGAGAATGACG — higher, ≥ 1

What follows are sequences tested against SMAD7. Details: ASO.

Point of comparison: CGAACATGACCTCCGCAC, remaining target (mRNA or protein) (fraction of control) 0.52. Against it:
- AGTCTGCAGTTGGTTTGA — higher, ≥ 1
- AATTGGTTCTGGTTCGGC — higher, ≥ 1
- GGCAAAAGCCATTCCCCT — higher, 0.72
- CTGATCTGCACGGTAAAG — higher, ≥ 1
- GTAGAAGAAATGAAAGAA — higher, ≥ 1
- GGACTTGATGAAGATGGG — higher, ≥ 1
- CAATCTTGTGTTTATCTT — higher, ≥ 1
- AAAACCTGATGTCACCAG — higher, ≥ 1
- GTTGTCTCCCCATCTGCC — higher, ≥ 1
- AGGCGGCCGGGCAGCAGG — higher, ≥ 1
- ACTCACACACACTCCTGA — higher, 0.79
- CGACAGCAGCAGCAGCAG — higher, 0.82
- GTATGCCACCACGCACCA — higher, ≥ 1
- GCCGATTTTGCTCCGCAC — higher, 0.78
- CCCTCCTCCTCGTCCTCG — higher, 0.72
- ATTTCCAATGAGAATGCT — higher, ≥ 1
- GATGGTACCTTGGGTTAT — higher, 0.94
- TGGACACAGTAGAGCCTC — higher, ≥ 1
- AACCTTTGTAGTTAGAAA — higher, 0.94
- TGCTTGGATTTCTGCTTC — higher, 0.89
- AGGAGGCGAGGAGAAAAG — higher, ≥ 1
- AGCCTCTTGACTTCCGAG — higher, ≥ 1
- GCTCAGCTCACGCTCTGT — higher, 0.62
- TTGGGACTGCAAACCTCT — higher, 0.91
- AGAAGTTGGGAATCTGAA — higher, ≥ 1
- ACCTTGTGTACCAACAGC — higher, ≥ 1
- GCTGTCCGTCGCCCCTTC — higher, 0.87
- AGTTCGCAGAGTCGGCTA — higher, 0.68
- ACACACAGGATGGGAGCA — higher, ≥ 1
- GAGATCCAGGAGCAGATG — higher, 0.78
- ATTCAGCTAGGTGATAAC — higher, ≥ 1
- CTGCCCCTTCTTCCAAAA — higher, 0.68
- GGCAGCTGCTGATGAACT — higher, 0.86
- TGCCCAGGTACTGCCTCT — higher, 0.72
- AGCACCGAGTGCGTGAGC — higher, 0.72
- CTCCGGCTGCCCCACCCC — the same, 0.52
- GGACATCCCCGCTTGCTG — higher, ≥ 1
- TGCATGAAAAGCAAGCAC — higher, 0.91
- AAAACAGAACACAAACGA — higher, ≥ 1
